# Tested on: complementary strand of DNA
# Assay: Thermal denaturation of DNA-dendrimer conjugate hybridized with complementary strand
# Format: binding
substance,measurement,value
"native: unmodified single stranded DNA, sequence TTC TCT TCA GTT CAC A (5′ to 3′) (DNA TTCTCTTCAGTTCACA; unmodified DNA)","Tm (thermal denaturation, melting temperature)",52.3 °C
